For one compound, IC50 results are on record in BindingDB's records for doi:10.1021/jm800930w (Kyoto University, 2008).

In the test the target is KiSS-1 receptor (Homo sapiens, UniProt Q969F8). Put plainly: Receptor Binding Assay. The settings on record: pH 7.3; 25 °C.

pIC50: −log10 of the molar value.

KiSS-1 receptor, sequence (Q969F8 whole entry): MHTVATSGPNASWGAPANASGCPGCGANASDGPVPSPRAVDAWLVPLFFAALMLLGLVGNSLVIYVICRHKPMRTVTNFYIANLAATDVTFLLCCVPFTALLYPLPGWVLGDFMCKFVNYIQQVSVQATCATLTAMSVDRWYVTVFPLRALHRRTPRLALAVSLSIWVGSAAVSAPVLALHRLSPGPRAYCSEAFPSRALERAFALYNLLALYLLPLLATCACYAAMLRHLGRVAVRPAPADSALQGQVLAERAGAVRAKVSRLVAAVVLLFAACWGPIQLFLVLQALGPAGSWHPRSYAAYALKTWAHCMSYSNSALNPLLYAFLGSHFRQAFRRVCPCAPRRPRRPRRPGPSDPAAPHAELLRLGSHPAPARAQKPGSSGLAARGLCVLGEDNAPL

As to `CC(C)C[C@H](NC(=O)CNC(=O)[C@H](Cc1ccccc1)NC(=O)[C@H](CO)NC(=O)[C@H](CC(N)=O)NC(=O)[C@H](Cc1c[nH]c2ccccc12)NC(=O)[C@H](CC(N)=O)NC(=O)[C@@H](N)Cc1ccc(O)cc1)C(=O)N[C@@H](CCCNC(=N)N)C(=O)N[C@@H](Cc1ccccc1)C(N)=O` [(2S)-2-[(2S)-2-[(2S)-2-[(2S)-2-amino-3-(4-hydroxyphenyl)propanamido]butanediamido]-3-(1H-indol-3-yl)propanamido]-N-[(1S)-1-{[(1S)-1-[({[(1S)-1-{[(1S)-4-carbamimidamido-1-{[(1S)-1-carbamoyl-2-phenylethyl]carbamoyl}butyl]carbamoyl}-3-methylbutyl]carbamoyl}methyl)carbamoyl]-2-phenylethyl]carbamoyl}-2-hydroxyethyl]butanediamide], the pIC50 (in general, −log10 of the IC50, conventionally taken in molar units) was 9.92.
